# Assay results reported in ChEMBL document CHEMBL3785044, “Phenobarbital metabolism in adults and in newborn infants” (Acta Paediatr Scand, 1978).
# Experiments:
# [1] = Half life in newborn infants at 20.6 mg/kg, po by gas chromatography; assay type: ADME, organism-based; details: human, in vivo
# [2] = Half life in subject at 4.33 mg/kg, po by gas chromatography; assay type: ADME, organism-based; details: male, human, in vivo
# [3] = Disposition rate constant in newborn infants at 20.6 mg/kg, po by gas chromatography; assay type: ADME, organism-based; details: human, in vivo
# [4] = Drug excretion in subject assessed as phenobarbital, p-hydroxyphenobarbital and conjugated p-hydroxyphenobarbital level in urine at 4.33 mg/kg, po measured during first 2 weeks by gas chromatography; assay type: ADME, organism-based; details: human, in vivo, 336 h
# Homo sapiens [5] = test: Disposition rate constant in newborn infants (2 patients) at 12 mg/kg, im by gas chromatography; assay type: ADME, organism-based; details: in vivo
# [6] = Drug excretion in newborn infants (4 patients) assessed as p-hydroxy phenobarbital level in urine at measured during first 8 days by gas chromatography; assay type: ADME, tissue-based; details: human, in vivo, 192 h
# Homo sapiens [7] = test: Apparent volume of distribution in male subject at 4.33 mg/kg, po by gas chromatography; assay type: ADME, organism-based; details: in vivo
# Homo sapiens [8] = test: Apparent drug level in subject at 5.21 mg/kg, po measured at time zero by gas chromatography; assay type: ADME, organism-based; details: in vivo
# [9] = Drug excretion in newborn infants (4 patients) assessed as unchanged compound level in urine at measured during first 8 days by gas chromatography; assay type: ADME; details: human, read-out: Drug excretion
# [10] = Half life in newborn infants at 11.4 mg/kg, im by gas chromatography; assay type: ADME, organism-based; details: human, in vivo
# [11] = Drug excretion in subject assessed as phenobarbital, p-hydroxyphenobarbital and conjugated p-hydroxyphenobarbital level in urine at 5.21 mg/kg, po measured during first 2 weeks by gas chromatography; assay type: ADME, organism-based; details: human, in vivo, 336 h
# Homo sapiens [12] = test: Apparent drug level in newborn infants at 11.4 mg/kg, po measured at time zero by gas chromatography; assay type: ADME, organism-based; details: in vivo
# [13] = Drug excretion in po dosed adult (2 subjects) assessed as unchanged compound level in urine at measured during first 8 days by gas chromatography; assay type: ADME, organism-based; details: human, read-out: Drug excretion
# Homo sapiens [14] = test: Apparent drug level in newborn infants (2 patients) at 12 mg/kg, im measured at time zero by gas chromatography; assay type: ADME, organism-based; details: in vivo
# [15] = Drug excretion in subject assessed as phenobarbital, p-hydroxyphenobarbital and conjugated p-hydroxyphenobarbital level in urine at 5.21 mg/kg, po measured during 4 week period by gas chromatography; assay type: ADME, organism-based; details: human, in vivo, 672 h
# Homo sapiens [16] = test: Apparent volume of distribution in newborn infants at 20.6 mg/kg, po by gas chromatography; assay type: ADME, organism-based; details: in vivo
# Homo sapiens [17] = test: Apparent volume of distribution in newborn infants at 11.4 mg/kg, im by gas chromatography; assay type: ADME, organism-based; details: in vivo
# Homo sapiens [18] = test: Apparent drug level in subject at 4.33 mg/kg, po measured at time zero by gas chromatography; assay type: ADME, organism-based; details: in vivo
# [19] = Plasma concentration in subject at 5.21 mg/kg, po measured after 17 days by gas chromatography; assay type: ADME, organism-based; details: female, human
# Homo sapiens [20] = test: Apparent volume of distribution in subject at 5.21 mg/kg, po by gas chromatography; assay type: ADME, organism-based; details: in vivo
# Homo sapiens [21] = test: Apparent volume of distribution in newborn infants (2 patients) at 12 mg/kg, im by gas chromatography; assay type: ADME, organism-based; details: in vivo
# Homo sapiens [22] = test: Half life in newborn infants (2 patients) at 12 mg/kg, im by gas chromatography; assay type: ADME, organism-based; details: in vivo
# [23] = Disposition rate constant in subject at 4.33 mg/kg, po by gas chromatography; assay type: ADME, organism-based; details: male, human, in vivo
# [24] = Half life in subject at 5.21 mg/kg, po by gas chromatography; assay type: ADME, organism-based; details: female, human, in vivo
# [25] = Disposition rate constant in newborn infants at 11.4 mg/kg, im by gas chromatography; assay type: ADME, organism-based; details: human, in vivo
# [26] = Disposition rate constant in subject at 5.21 mg/kg, po by gas chromatography; assay type: ADME, organism-based; details: female, human, in vivo
# Homo sapiens [27] = test: Apparent drug level in newborn infants at 20.6 mg/kg, po measured at time zero by gas chromatography; assay type: ADME, organism-based; details: in vivo
smiles,measurement,setting,value
CCC1(c2ccccc2)C(=O)NC(=O)NC1=O [PHENOBARBITAL],half-life,[1],83 h
same,half-life,[2],84 h
same,k el,[3],2.33e-06 s⁻¹
same,Drug excretion,[4],35%
same,K,Homo sapiens [5],0.004 h⁻¹
same,Drug excretion,[6],10%
same,Vd(app),Homo sapiens [7],0.47 L/kg
same,Drug uptake,Homo sapiens [8],10 µg/mL
same,dose excreted at 192 h,[9],17%
same,half-life,[10],119 h
same,Drug excretion,[11],65%
same,Drug uptake,Homo sapiens [12],17.8 µg/mL
same,dose excreted at 192 h,[13],16%
same,Drug uptake,Homo sapiens [14],18.1 µg/mL
same,Drug excretion,[15],75%
same,Vd(app),Homo sapiens [16],0.98 L/kg
same,Vd(app),Homo sapiens [17],0.99 L/kg
same,Drug uptake,Homo sapiens [18],9.3 µg/mL
same,concentration at 408 h,[19],500 ng/mL
same,Vd(app),Homo sapiens [20],0.52 L/kg
same,Vd(app),Homo sapiens [21],0.59 L/kg
same,t1/2,Homo sapiens [22],61 h
same,k el,[23],2.28e-06 s⁻¹
same,half-life,[24],117 h
same,k el,[25],1.61e-06 s⁻¹
same,k el,[26],1.64e-06 s⁻¹
same,Drug uptake,Homo sapiens [27],21 µg/mL
